# Calls of active or inactive are those of the source.
# Legend:
# [1] = target: Glucose-6-phosphate 1-dehydrogenase (Homo sapiens, UniProt P11413); experiment: human G6PD enzyme inhibitors, dose response, selectivity assay for P. falciparum G6PD inhibitor project, biochemical, fluorescence (AID 504792); format: functional
# Vero = Vero cell cytotoxicity, cytotoxicity control for flavivirus capping enzyme inhibitors (AID 588742); format: functional; conditions: Chlorocebus sabaeus
# Leucine aminopeptidase = target: T1, Leucine aminopeptidase (Plasmodium falciparum 3D7, UniProt Q8IL11); experiment: P. falciparum M17LAP inhibitors, primary screen, biochemical, fluorogenic H-Leu-NHMec substrate, 1536-well (AID 1619); format: functional
# T1 sequence (Q8IL11 whole entry): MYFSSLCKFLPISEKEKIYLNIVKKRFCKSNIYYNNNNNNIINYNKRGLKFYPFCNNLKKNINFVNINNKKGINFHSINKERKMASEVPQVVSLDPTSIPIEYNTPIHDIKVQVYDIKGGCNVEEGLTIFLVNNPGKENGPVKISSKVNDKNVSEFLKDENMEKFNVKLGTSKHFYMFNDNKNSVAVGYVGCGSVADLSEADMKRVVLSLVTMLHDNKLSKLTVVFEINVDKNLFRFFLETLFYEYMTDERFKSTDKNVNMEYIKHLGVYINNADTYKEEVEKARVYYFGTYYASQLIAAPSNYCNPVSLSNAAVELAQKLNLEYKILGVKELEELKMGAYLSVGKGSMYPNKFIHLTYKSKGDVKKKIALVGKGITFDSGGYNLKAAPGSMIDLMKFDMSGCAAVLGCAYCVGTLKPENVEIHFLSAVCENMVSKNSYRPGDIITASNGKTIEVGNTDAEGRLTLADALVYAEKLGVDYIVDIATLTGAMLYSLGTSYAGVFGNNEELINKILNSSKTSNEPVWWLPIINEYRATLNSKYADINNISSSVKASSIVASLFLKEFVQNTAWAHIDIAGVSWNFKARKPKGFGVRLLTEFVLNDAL
# [2] = target: G-protein coupled receptor 55 (Homo sapiens, UniProt Q9Y2T6); experiment: GPR55 antagonists blocking LPI-driven arrestin recruitment, primary screen, imaging, U2OS, beta-arrestin-GFP, LPI agonist (AID 2013); format: functional;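 also: antagonist potency measured as reduced agonist-driven arrestin aggregation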
# Sequence of G-protein coupled receptor 55 (Q9Y2T6 whole entry): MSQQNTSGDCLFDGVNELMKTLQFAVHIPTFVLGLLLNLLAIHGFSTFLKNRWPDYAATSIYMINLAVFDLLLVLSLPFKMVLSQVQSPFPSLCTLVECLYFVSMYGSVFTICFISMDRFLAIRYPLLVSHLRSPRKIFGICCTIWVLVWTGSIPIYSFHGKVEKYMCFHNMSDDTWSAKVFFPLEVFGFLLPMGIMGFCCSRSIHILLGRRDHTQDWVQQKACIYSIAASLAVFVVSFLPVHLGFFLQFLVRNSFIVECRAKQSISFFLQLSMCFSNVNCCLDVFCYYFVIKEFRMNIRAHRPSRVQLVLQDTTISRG
# [3] = target: T2, Small ubiquitin-related modifier 1 (Homo sapiens, UniProt P63165); experiment: inhibitors of SUMO1 peptide binding, dose response, biochemical, fluorescence polarization, uHTS hits (AID 624382); format: functional; conditions: read-out: IC50_Mean
# T2 sequence (P63165 whole entry): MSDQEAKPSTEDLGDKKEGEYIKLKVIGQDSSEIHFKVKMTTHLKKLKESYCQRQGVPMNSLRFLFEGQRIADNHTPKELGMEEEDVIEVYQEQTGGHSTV
# [4] = target: T2, Small ubiquitin-related modifier 1; experiment: inhibitors of SUMO1 partner interactions, dose response, biochemical, FRET (AID 624383); format: functional; conditions: read-out: IC50_Mean
# [5] = cytotoxicity toward DRD oncogenic fibroblasts, dose response, cell-based, non-viral oncogenic, luminescence (AID 1934); format: functional; conditions: Homo sapiens
# [6] = A Cell Based Secondary Assay To Explore Cytotoxicity of Compounds that Sensitize Mycobacterium Tuberculosis to Beta-Lactam Antibiotics.; format: functional
# BJ [7] = experiment: cells; format: functional, cell-based; conditions: Homo sapiens
# BJ [8] = experiment: cytotoxicity toward BJ-TERT fibroblasts, dose response, cell-based, RAS-independent, luminescence (AID 1933); format: functional; conditions: Homo sapiens
# BJ [9] = experiment: cytotoxicity toward BJ-TERT-LT-ST fibroblasts, dose response, cell-based, RAS-independent, luminescence (AID 1935); format: functional; conditions: Homo sapiens;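 also: BJ fibroblasts immortalized with TERT plus LT and ST oncogenes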
# [10] = target: T3, Heat shock factor protein 1 (Mus musculus, UniProt P38532); experiment: HSF1 potentiators in luciferase reporter cells, confirmation, cell-based, NIH3T3, luminescence, dose retest (AID 435004); format: functional;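 also: stress induced by proteasome inhibitor MG132 added 30 min after compound; luciferase reporter driven by HSF1 response element in NIH3T3 cells; actives raise luminescence as potentiators of the MG132 stress response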
# T3 sequence (P38532 whole entry): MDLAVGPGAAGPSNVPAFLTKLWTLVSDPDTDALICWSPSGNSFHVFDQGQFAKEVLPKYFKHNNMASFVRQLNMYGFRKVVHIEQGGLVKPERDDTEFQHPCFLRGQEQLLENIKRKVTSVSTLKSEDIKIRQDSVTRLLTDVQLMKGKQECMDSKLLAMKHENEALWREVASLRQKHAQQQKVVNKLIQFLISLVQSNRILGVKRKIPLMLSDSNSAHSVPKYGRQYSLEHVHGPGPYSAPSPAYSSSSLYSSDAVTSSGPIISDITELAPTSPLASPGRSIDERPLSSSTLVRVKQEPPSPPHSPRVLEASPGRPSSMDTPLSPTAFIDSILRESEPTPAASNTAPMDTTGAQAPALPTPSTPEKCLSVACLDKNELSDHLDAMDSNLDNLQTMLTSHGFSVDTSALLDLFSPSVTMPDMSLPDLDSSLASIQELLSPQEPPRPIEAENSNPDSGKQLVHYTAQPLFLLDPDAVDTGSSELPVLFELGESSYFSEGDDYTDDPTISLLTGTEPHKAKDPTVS
# [11] = target: T4, Short transient receptor potential channel 4 (Mus musculus, UniProt Q9QUQ5); experiment: mouse TRPC4 channel activators, dose response, cell-based, HEK293 TRPC4/mu-opioid, Fluo-4 calcium (AID 434937); format: functional
# T4 sequence (Q9QUQ5 whole entry): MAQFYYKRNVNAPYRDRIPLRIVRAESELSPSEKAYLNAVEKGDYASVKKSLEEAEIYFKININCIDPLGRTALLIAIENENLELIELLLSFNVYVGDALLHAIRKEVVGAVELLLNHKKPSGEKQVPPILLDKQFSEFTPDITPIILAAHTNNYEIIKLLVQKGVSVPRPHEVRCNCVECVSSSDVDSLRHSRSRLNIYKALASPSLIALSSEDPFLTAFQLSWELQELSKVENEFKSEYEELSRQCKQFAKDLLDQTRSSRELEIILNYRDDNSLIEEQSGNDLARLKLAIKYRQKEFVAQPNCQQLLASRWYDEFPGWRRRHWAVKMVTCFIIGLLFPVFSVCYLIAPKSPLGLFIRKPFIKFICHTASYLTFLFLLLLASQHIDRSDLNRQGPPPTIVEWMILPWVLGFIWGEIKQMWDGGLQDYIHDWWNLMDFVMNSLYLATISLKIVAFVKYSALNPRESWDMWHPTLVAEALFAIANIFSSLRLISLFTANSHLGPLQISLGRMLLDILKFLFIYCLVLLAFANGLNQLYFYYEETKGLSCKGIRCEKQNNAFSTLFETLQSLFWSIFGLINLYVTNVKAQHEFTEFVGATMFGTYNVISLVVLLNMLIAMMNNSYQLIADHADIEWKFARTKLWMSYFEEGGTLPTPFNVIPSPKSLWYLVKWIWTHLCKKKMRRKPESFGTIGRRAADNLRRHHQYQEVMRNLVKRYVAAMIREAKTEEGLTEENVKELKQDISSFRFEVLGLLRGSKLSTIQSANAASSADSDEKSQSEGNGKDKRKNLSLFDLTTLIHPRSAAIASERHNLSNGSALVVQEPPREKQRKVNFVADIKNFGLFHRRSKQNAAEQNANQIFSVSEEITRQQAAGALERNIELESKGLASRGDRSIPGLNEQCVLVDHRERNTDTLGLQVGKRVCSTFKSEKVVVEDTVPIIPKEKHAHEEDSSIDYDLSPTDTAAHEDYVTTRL
# SUMO-activating enzyme = SUMO-activating enzyme (Homo sapiens, UniProt Q9UBT2); experiment: SUMOylation inhibitor hit validation, confirmation, SUMOylation inhibitor project, biochemical, AlphaScreen (AID 2018); format: functional
# Sequence of SUMO-activating enzyme (Q9UBE0 whole entry): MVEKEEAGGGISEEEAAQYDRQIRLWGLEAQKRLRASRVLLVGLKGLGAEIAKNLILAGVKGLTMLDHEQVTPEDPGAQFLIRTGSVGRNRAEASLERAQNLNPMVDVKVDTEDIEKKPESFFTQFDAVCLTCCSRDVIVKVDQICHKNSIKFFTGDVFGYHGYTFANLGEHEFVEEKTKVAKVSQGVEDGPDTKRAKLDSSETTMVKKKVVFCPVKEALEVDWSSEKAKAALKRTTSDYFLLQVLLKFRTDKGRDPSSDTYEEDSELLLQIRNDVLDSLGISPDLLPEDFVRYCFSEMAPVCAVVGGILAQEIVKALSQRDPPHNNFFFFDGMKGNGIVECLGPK
# Sequence of SUMO-activating enzyme (Q9UBT2 whole entry): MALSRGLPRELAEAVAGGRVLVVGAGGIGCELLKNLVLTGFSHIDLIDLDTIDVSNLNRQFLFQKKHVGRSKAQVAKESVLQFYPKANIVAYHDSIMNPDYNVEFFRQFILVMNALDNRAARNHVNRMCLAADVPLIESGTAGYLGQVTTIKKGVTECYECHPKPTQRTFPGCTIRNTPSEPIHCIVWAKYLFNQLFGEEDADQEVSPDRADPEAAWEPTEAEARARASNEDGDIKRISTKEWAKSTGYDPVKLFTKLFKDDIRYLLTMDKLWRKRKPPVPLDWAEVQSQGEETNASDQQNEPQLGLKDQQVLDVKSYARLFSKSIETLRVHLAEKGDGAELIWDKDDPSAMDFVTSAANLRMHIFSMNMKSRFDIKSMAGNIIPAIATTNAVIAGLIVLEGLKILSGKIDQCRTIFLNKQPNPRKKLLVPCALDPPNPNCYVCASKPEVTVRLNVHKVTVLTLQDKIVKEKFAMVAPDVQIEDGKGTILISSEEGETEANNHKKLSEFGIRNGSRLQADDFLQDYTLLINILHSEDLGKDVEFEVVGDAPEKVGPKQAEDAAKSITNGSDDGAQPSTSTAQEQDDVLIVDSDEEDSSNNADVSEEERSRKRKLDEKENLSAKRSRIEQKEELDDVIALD
# [12] = target: Glyceraldehyde-3-phosphate dehydrogenase (Homo sapiens, UniProt P04406)
# Sequence of Glyceraldehyde-3-phosphate dehydrogenase (P04406 whole entry): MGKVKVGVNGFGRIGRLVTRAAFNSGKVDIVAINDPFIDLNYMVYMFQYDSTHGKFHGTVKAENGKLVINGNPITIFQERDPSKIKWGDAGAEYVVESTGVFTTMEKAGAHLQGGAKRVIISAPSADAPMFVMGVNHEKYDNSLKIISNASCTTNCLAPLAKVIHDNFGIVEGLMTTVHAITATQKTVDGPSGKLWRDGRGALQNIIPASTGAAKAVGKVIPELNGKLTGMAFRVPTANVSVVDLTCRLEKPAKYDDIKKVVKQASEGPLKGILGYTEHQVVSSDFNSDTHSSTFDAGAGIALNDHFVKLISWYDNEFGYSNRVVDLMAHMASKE
# Protein Wnt-3a = Protein Wnt-3a (Mus musculus, UniProt P27467); experiment: Wnt3a-driven reporter signaling inhibition, dose response, selectivity assay for Gli-SUFU antagonist project, Wnt-LIGHT cells, luminescence (AID 651570); format: functional; conditions: read-out: IC50_Mean;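 also: Wnt-LIGHT reporter cells stimulated with conditioned medium from Wnt3a-producing cells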
# Sequence of Protein Wnt-3a (P27467 whole entry): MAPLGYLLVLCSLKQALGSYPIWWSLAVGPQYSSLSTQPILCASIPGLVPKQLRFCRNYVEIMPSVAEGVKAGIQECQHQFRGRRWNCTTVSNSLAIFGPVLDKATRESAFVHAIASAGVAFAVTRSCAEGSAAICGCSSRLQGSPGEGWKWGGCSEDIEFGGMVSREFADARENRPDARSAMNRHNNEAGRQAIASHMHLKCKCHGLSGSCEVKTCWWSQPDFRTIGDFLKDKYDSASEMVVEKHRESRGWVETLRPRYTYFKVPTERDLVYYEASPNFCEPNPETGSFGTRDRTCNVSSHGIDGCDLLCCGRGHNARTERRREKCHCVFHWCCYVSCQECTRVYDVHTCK
# [13] = cytotoxicity in HEK-293T cells, dose response, cytotoxicity control for TCR NF-kB inhibitor project, luminescence, T-cell screen hits (AID 489026); format: functional, cell-based;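 also: cells exposed to compound about 14 hours before the viability readout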
# [14] = A549 cell cytotoxicity, dose response, cytotoxicity control, plate reader, cherry-pick, antagonist series (AID 743412); format: functional, cell-based
# [15] = LGR2 antagonists, dose response, cell-based, HEK293, CRE-luciferase reporter, cherry pick, set 2 (AID 743343); format: functional;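 also: transfected cells were stimulated with diluted bursicon conditioned medium after compound addition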
# [16] = HEK293 cell cytotoxicity, dose response, cytotoxicity control, plate reader, cherry-picked samples (AID 743446); format: functional, cell-based
# [17] = MC4R antagonists, dose response, counter-screen for LGR2 antagonist project, cell-based, plate reader, cherry pick (AID 743444); format: functional;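 also: transfected HEK 293 cells stimulated with alpha-MSH peptide; potency of inhibitors of the alpha-MSH evoked signal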
# P388/ADR = experiment: cells; format: functional; conditions: Mus musculus
# SN12K1 = experiment: cells; format: functional; conditions: Homo sapiens
# P388 = experiment: cells; format: functional; conditions: Mus musculus
# [18] = Vero E6 cell cytotoxicity, dose response, cytotoxicity control for non-replicating M. tuberculosis project, secondary assay (AID 492998); format: functional, VeroE6; conditions: Vero C1008
# cells = format: functional
# [19] = cytotoxicity toward NIH3T3 fibroblasts, dose response, counter-screen, cell-based, ATP luminescence, mouse fibroblasts (AID 2010); format: functional;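 also: cells exposed to compound for about 90 hours before reading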
# [20] = inhibitors of intracellular T. cruzi replication, confirmation, NIH3T3 host cells, beta-gal luminescence (AID 2044); format: functional, cell-based;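 also: intracellular parasites grown in NIH/3T3 mouse fibroblasts as host cells; luminescent beta-galactosidase reporter signal from transgenic T. cruzi replicating inside host cells; inhibitors lower the luminescence signal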
# Sequence of Glucose-6-phosphate 1-dehydrogenase (P11413 whole entry): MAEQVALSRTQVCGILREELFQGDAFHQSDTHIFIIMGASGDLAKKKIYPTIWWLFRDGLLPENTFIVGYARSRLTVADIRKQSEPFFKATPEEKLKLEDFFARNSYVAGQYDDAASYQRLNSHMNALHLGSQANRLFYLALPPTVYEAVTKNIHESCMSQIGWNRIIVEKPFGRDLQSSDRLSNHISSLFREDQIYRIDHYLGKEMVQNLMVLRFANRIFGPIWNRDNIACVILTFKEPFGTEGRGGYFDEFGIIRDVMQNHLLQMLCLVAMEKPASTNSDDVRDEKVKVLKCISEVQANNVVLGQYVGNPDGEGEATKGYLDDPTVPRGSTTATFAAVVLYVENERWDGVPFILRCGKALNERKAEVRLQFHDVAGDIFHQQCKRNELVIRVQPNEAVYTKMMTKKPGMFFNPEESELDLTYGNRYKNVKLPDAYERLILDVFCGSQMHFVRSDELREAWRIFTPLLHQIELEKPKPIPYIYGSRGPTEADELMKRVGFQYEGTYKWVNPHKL
smiles,measurement,setting,value
COc1cc(NCc2ccccc2)c2ncn(C(C)C)c2c1,IC50,[1],> 80 µM (inactive)
O=C(Nc1ccc2c(c1)CCCN2C(=O)c1cccs1)c1ccccc1,CC50,Vero,> 40 µM (active)
CCCCc1ccc(NC(=O)N[C@H](C(=O)O)C(C)C)cc1,IC50,Leucine aminopeptidase,7.04 µM (active)
O=C(CSc1nc(-c2ccccc2)c(-c2ccccc2)[nH]1)N1CCN(S(=O)(=O)c2ccccc2)CC1,IC50,[2],3.67 µM (active)
CCC(C)[C@@H](CN)NCC1(c2ccccc2)CC1 (some centres not stated),IC50,[3],> 66.6 µM (inactive)
same,IC50,[4],18.4 µM (active)
N#Cc1c(C(F)(F)F)cc(-c2ccccc2)nc1SCC(=O)Nc1sc2c(c1C#N)CCC2,EC50,[5],> 150 µM (inconclusive)
same,CC50,[6],> 40 µM (active)
same,EC50,BJ [7],> 150 µM (inconclusive)
same,EC50,BJ [8],> 150 µM (not active)
same,EC50,BJ [9],> 150 µM (not active)
COc1ccc(C2c3ccc(O)cc3Oc3ncn(Cc4ccco4)c(=N)c32)cc1 (configuration not stated),IC50,[2],1.41 µM (active)
same,EC50,[10],> 260 µM (inactive)
Cc1cc(-c2nn(-c3ccccc3F)cc2CNCCc2c[nH]cn2)c(C)s1,EC50,[11],0.0427 µM (active)
CC1CCCN(c2nc3ccccc3nc2C(C#N)S(=O)(=O)c2ccccc2)C1 (configuration not stated),IC50,SUMO-activating enzyme,22.1 µM (active)
N#C/C(=C\c1c[nH]nc1-c1ccccc1Br)C(=O)O,IC50,[2],3.58 µM (active)
O=C1C(Cl)=C(N2CCN(C/C=C/c3ccccc3)CC2)C(=O)N1c1ccnc(Cl)c1,IC50,[12],> 50 µM (inconclusive)
O=C(c1ccc(-c2ccc(Cl)cc2)o1)N1CCN(S(=O)(=O)c2cccs2)CC1,CC50,[6],26 µM (active)
Cc1nc2ccccc2n1CC(=O)NC(C)C1CC2CCC1C2 (configuration not stated),IC50,Protein Wnt-3a,4.3 µM (active)
N=C1/C(=C/c2cccn2Cc2ccc(Cl)cc2)C(=O)N=C2SC=CN12,IC50,SUMO-activating enzyme,47.6 µM (active)
NS(=O)(=O)c1ccc(Sc2nc3ccccc3s2)c([N+](=O)[O-])c1,CC50,[6],13 µM (active)
same,IC50,[13],> 80 µM (inactive)
CCOc1ccc(-c2ccc(SCC)nn2)cc1,AC50,[14],> 52 µM (inactive)
same,AC50,[15],7.12 µM (active)
same,AC50,[16],> 52 µM (inactive)
same,AC50,[17],8.8 µM (active)
O=C(O)C1C2C=CC(C2)C1C(=O)NC1CCN(Cc2ccccc2)CC1 (configuration not stated),EC50,[11],5.31 µM (active)
COc1ccc(Cl)cc1NC(=O)NNC(=O)c1ccccn1,CC50,[6],28.8 µM (active)
CCN1CCCC1CNC(=O)c1cc2c(OC)cccc2[nH]1 (configuration not stated),EC50,[11],6.68 µM (active)
O=C(N[C@@H](c1ccccc1)[C@@H](O)C(=O)OCc1ccc2c(c1)OCO2)c1ccccc1,GI50,P388/ADR,72.6 µM (inactive)
same,GI50,SN12K1,> 100 µM (inactive)
same,GI50,P388,64.7 µM (inactive)
C/C(Cn1nnc([N+](=O)[O-])n1)=N\NC(=O)c1ccccc1O,IC50,[1],> 80 µM (inactive)
CC1C(=O)CC(c2cccs2)N(N=O)C1c1cccs1 (configuration not stated),GI50,P388/ADR,17.3 µM (inactive)
same,GI50,SN12K1,57.8 µM (inactive)
same,GI50,P388,20.4 µM (inactive)
O=C(N/N=C/c1ccc([N+](=O)[O-])s1)c1ccncc1,CC50,[18],15.6 µM (active)
same,IC50,cells,1 µM (active)
same,EC50,[19],> 60 µM (not active)
same,EC50,[20],0.838 µM (active)
O=c1oc2c(ccc3occc32)c(N2CCCCC2)c1-c1ccccc1,GI50,P388/ADR,48.6 µM (inactive)
same,GI50,SN12K1,> 100 µM (inactive)
same,GI50,P388,34.7 µM (inactive)
CCOC(=O)/C=C/c1c[nH]c(=O)[nH]c1=O,GI50,P388/ADR,> 66.4 µM (inactive)
same,GI50,SN12K1,> 75 µM (inactive)
same,GI50,P388,> 75 µM (inactive)
CC(=O)C(=Cc1cn(C)c(=O)n(C)c1=O)C(C)=O,GI50,P388/ADR,96.6 µM (inactive)
same,GI50,SN12K1,100 µM (inactive)
same,GI50,P388,80.7 µM (inactive)
CCCCCCc1cn([C@H]2C[C@H](O)[C@@H](CO)O2)c(=O)[nH]c1=O,GI50,P388/ADR,> 100 µM (inactive)
same,GI50,SN12K1,> 100 µM (inactive)
same,GI50,P388,> 100 µM (inactive)

# Source: ChEMBL document CHEMBL1201862, “PubChem BioAssay data set” (2004)
